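Method: 48-hour compound exposure of cells in 96-well plates, five concentrations, linear interpolation of endpoints. Here, GI50 denotes the concentration required for 50% inhibition of growth. At the TGI there is no net growth.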 Where only a bound is given, the exact number is not on record here.

Experiment in all cases: inhibition of tumour cell growth, NCI panel, 48 h
Assay [1] has as its system MCF7 breast.
Assay [2] relates to HOP-92 NSCLC.
Assay [3] relates to U251 CNS.
The subject of assay [4] is COLO 205 colon.
Assay [5] has as its system M14 melanoma.
Assay [6] relates to PC-3 prostate.
The test system of assay [7] is SNB-75 CNS.
Assay [8] deals with SN12C renal.
For assay [9], the system named is MDA-MB-231 breast.
In assay [10] the test system is SK-OV-3 ovarian.

With `CSc1ccc(C2=C(c3ccccc3)C(=O)OC2)cc1`, the GI50 in assay [1] is 0.81 µM; in assay [2], 2.13 µM; in assay [3], 0.329 µM; in assay [4], 0.763 µM; in assay [5], 0.483 µM; in assay [6] it was 0.884 µM. Besides, the GI50 in [7] was 5.67 µM; in [8] it was 7.68 µM; in assay [9] it was 0.425 µM; in [10], 1.51 µM. Further, the TGI was 44.7 µM in assay [2]; 7.05 µM in assay [3]; > 100 µM in [4]; > 46.1 µM in [5]; 21.1 µM in [6]; > 100 µM in assay [7]. Further, the TGI in [8] was > 100 µM; in [9], 20.9 µM; in [10], > 100 µM.
`COc1cc2cc(Oc3ccc(NC(=O)Nc4cc(C(F)(F)F)cc(C(F)(F)F)c4)cc3)c(C)nc2cc1OCCN1CCOCC1`: the GI50 in assay [1] is 1.43 µM; in [2] it was 0.9 µM; in assay [3], 1.13 µM; in assay [4], 1.02 µM; in assay [5], 1.51 µM; in [6], 1.18 µM. The GI50 was 1.02 µM in [7], 1.49 µM in [8], 1.7 µM in assay [9] and 2.09 µM in assay [10]. Moreover, the TGI came to 3.91 µM in assay [1]; 2.71 µM in assay [2]; 2.85 µM in assay [3]; 2.18 µM in assay [4]; 5.88 µM in assay [5]; 5.16 µM in assay [6]. Further, the TGI was 4.48 µM in assay [7], 5.48 µM in assay [8], 6.45 µM in [9] and 8.5 µM in assay [10].
As for `CSC1=NC(=Nc2c(C)cccc2C)C2(CCC(C(C)(C)C)CC2)N1c1ccc(Cl)cc1` (centres undefined), the GI50 is 26.5 µM in assay [1]; 67.8 µM in [2]; 8.04 µM in assay [3]; 46.4 µM in assay [4]; 68.2 µM in assay [5]; 6.05 µM in assay [6]. Moreover, the GI50 in [7] is > 100 µM; in assay [8], 40.8 µM; in assay [9], > 100 µM; in assay [10] it was > 100 µM. In addition, the TGI in [1], in [2], in assay [3], in assay [4], in assay [5] and in assay [6] was > 100 µM in each case. The TGI in assay [7], in [8], in [9] and in assay [10] was > 100 µM throughout.
`COc1cc2oc(-c3cccc(C(=O)Nc4ccc(Cl)cc4)c3)cc(=O)c2c(OC)c1OC`: the GI50 in assay [1] was 2.94 µM; in assay [2] it was 1.46 µM; in [3], 4.08 µM; in [4] it was 1.47 µM; in assay [5], 1.38 µM; in assay [6], 3.4 µM. Also, the GI50 in assay [7] was 2.66 µM; in assay [8] it was 3.49 µM; in assay [9], 1.58 µM; in assay [10], 3.41 µM. Moreover, the TGI in assay [1] is > 100 µM; in [2], 5.58 µM; in [3] it was > 100 µM; in assay [4], 4.04 µM; in assay [5] it was 4.73 µM; in [6], > 100 µM. Moreover, the TGI in assay [7], in [8], in [9] and in [10] was > 100 µM throughout.
For `c1cc(N[C@@H]2CCNC2)nc(-c2cnc3ccc(-c4cn[nH]c4)cn23)c1`, the GI50 in assay [1] was 3.31 µM; in [2] it was 1.38 µM; in [3], 3.11 µM; in [4], 3.46 µM; in assay [5], 13.7 µM; in assay [6], 4.99 µM. Also, the GI50 in assay [7] is 1.88 µM; in [8], 0.795 µM; in [9], 3.56 µM; in [10], 7.8 µM. The TGI was found to be 20.4 µM in assay [1]; 4.51 µM in assay [2]; 18.3 µM in assay [3]; 9.85 µM in [4]; 44.9 µM in assay [5]; 47.8 µM in assay [6]. Moreover, the TGI in [7] worked out at 5.77 µM; in assay [8], 13.4 µM; in assay [9], 36.1 µM; in assay [10], 68.6 µM.
Regarding `O=C(CS(=O)(=O)c1nc2ccccc2nc1-c1ccccc1)Nc1ccc(F)cc1`, the GI50 is 43.1 µM in assay [1]; 22.3 µM in assay [2]; 37.9 µM in [3]; 65.1 µM in assay [4]; > 100 µM in assay [5]; 26 µM in assay [6]. For the same compound, the GI50 in [7] is > 100 µM; in assay [8], 33.9 µM; in [9], 34.7 µM; in assay [10] it was > 100 µM. The TGI in assay [1], in [2], in assay [3], in assay [4], in assay [5] and in [6] was > 100 µM in each case. The TGI in assay [7], in [8], in assay [9] and in assay [10] was > 100 µM in each case.
Take `CN(C)c1ccc(/C=C\c2ccnc3ccccc23)cc1`: the GI50 in assay [1] is 0.328 µM; in assay [2] it was 6.23 µM; in assay [3], 9.43 µM; in [4], 4.75 µM; in assay [5], 4.42 µM; in [6] it was 17.9 µM. The GI50 is 1.44 µM in assay [7], 8.81 µM in assay [8], 11.3 µM in assay [9] and 5.25 µM in assay [10]. The TGI is 10.9 µM in [1]; 60.4 µM in assay [2]; > 100 µM in [3]; 41.5 µM in [4]; > 66 µM in [5]; > 100 µM in assay [6]. Besides, the TGI in [7] is 8.97 µM; in assay [8], > 74.1 µM; in assay [9], > 73.9 µM; in assay [10], > 100 µM.

The values are drawn from PubChem BioAssay (NCI).
